# Patent publication US20130236656A1, “SELF-REDUCED METAL COMPLEX INKS SOLUBLE IN POLAR PROTIC SOLVENTS AND IMPROVED CURING METHODS” (LIQUID X PRINTED METALS, INC., priority 2012, published 2013)
# Conditions: isolated solid
smiles,measurement,value
CC(C)C(=O)[O-].NCCN.[Ag+] [ethylenediamine silver isobutyrate],hygroscopicity (hydroscopic [sic]),hydroscopic
